Earlier results on two compounds are cited in patent US12453819B2, “Injector” (Antares Pharma, Inc., priority 2018, dated 2025).

Structures can show the parent of a compound that is named as a salt.

On to `C=CCN1CC[C@]23c4c5ccc(O)c4O[C@H]2C(=O)CC[C@@]3(O)[C@H]1C5` [Naloxone hydrochloride], for which the “solubility in water: parts of water dissolving one part” value (as described in USP (soluble)) is on record as 10-30 parts of water. Moreover, for the setting “descriptive term”, the solubility in alcohol result is reported as “slightly soluble”, the solubility in chloroform result is recorded as “practically insoluble”, the solubility in ether result is given as “practically insoluble” and the solubility in water entry was “soluble”.

For orientation: log P means the decadic logarithm of the partition coefficient of the neutral form, usually between octanol and water. In the case of `C=CCN1CC[C@]23c4c5ccc(O)c4O[C@H]2C(=O)CC[C@@]3(O)[C@H]1C5` [Naloxone, 17-allyl-4,5α-epoxy, 3-14-dihydroxymorphine-6-one], the “log P” value was 1.92.
